Each structure is given as a SMILES string. Active and inactive are the calls of the source. The rule behind the calls is not given here.

For experiment [1], the target named is T1, Low molecular weight phosphotyrosine protein phosphatase (Homo sapiens, UniProt P24666).
T1 sequence (P24666 whole entry): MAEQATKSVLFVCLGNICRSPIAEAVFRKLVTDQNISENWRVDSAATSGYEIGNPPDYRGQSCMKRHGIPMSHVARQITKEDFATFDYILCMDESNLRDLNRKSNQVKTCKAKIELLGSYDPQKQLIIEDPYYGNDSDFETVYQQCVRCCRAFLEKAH
Description: Inhibition of LMPTP-A expressed in Escherichia coli BL21 using pNPP substrate

Experiment [2] addresses T2, Tyrosine-protein phosphatase non-receptor type 12 (Homo sapiens, UniProt Q05209).
T2 sequence (Q05209 whole entry): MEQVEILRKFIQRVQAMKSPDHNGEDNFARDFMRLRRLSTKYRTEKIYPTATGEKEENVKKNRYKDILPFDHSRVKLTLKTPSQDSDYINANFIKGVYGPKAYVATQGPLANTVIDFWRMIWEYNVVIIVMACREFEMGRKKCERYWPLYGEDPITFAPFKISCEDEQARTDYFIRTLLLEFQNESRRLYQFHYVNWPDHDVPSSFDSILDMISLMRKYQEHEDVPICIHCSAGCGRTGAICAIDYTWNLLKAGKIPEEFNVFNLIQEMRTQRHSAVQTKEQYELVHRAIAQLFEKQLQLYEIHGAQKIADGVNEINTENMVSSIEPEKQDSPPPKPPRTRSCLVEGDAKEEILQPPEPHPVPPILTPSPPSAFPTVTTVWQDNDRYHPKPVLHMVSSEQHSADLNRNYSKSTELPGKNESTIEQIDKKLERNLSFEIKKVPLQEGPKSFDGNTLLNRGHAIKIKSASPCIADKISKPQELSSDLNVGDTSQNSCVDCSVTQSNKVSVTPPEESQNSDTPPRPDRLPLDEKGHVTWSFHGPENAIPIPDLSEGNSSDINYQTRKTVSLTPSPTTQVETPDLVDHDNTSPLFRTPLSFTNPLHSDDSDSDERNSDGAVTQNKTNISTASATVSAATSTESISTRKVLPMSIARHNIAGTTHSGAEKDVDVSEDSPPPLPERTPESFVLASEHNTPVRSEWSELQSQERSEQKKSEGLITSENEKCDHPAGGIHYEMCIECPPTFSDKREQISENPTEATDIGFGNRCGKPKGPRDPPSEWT
Description: Inhibition of PTP-PEST expressed in Escherichia coli BL21 using pNPP substrate

Experiment [3] has as its target T3, Tyrosine-protein phosphatase non-receptor type 22 (Mus musculus) (UniProt P29352).
T3 sequence (whole entry): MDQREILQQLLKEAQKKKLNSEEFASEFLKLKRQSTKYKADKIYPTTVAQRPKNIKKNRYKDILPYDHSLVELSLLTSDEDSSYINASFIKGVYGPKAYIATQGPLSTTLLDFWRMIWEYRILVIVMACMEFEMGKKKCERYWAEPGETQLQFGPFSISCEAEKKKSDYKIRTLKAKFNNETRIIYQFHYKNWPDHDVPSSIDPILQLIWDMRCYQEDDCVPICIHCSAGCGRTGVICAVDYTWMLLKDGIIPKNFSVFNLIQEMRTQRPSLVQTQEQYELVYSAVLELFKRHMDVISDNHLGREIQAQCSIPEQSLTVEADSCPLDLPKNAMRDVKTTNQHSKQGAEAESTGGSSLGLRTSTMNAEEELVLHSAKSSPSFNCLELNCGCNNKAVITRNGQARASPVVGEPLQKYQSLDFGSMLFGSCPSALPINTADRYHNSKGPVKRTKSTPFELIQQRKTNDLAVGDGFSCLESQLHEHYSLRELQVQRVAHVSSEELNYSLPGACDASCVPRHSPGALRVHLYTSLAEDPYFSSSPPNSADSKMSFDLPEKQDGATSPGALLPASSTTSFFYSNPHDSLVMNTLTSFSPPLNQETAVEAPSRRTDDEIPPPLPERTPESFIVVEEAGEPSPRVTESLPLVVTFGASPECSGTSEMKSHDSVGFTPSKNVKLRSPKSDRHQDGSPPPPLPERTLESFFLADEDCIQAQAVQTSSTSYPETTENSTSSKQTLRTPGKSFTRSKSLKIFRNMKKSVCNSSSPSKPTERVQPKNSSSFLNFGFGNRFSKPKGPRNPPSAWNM
Put plainly: Inhibition of LYP in anti-CD3 and antiCD28 antibody-stimulated C57BL/6 mouse CD4+ splenocytes assessed as increase in TCR signaling-stimulated CD69 expression at 100 uM incubated for 24 hrs (reference value: 29.2%). Details: scale not given: the % may be the effect or the level left.

For experiment [4], the target named is T3, Tyrosine-protein phosphatase non-receptor type 22 (Mus musculus). The experiment can be described thus: Inhibition of LYP in anti-CD3 and antiCD28 antibody-stimulated C57BL/6 mouse CD8+ splenocytes assessed as increase in TCR signaling-stimulated CD69 expression at 50 uM incubated for 24 hrs (reference value: 5.3%). On the set-up: scale not given: the % may be the effect or the level left.

A short description of experiment [5]: Inhibition of TCR signaling in anti-CD3 and anti-CD4 antibody stimulated mouse Ptpn22-/- T cells assessed as increase in Lck Y394 phosphorylation at 50 uM by Western blotting. The following applies: T-cell. (In western blotting, separated proteins are transferred to a membrane and probed.)
The target in experiment [6] is T3, Tyrosine-protein phosphatase non-receptor type 22 (Mus musculus). Put plainly: Inhibition of LYP in anti-CD3 and antiCD28 antibody-stimulated C57BL/6 mouse CD8+ splenocytes assessed as increase in TCR signaling-stimulated CD69 expression at 100 uM incubated for 24 hrs (reference value: 5.3%). Details: scale not given: the % may be the effect or the level left.

The target is the same in experiment [7]. Put plainly: Inhibition of LYP-mediated TCR signaling in anti-CD3 and anti-CD4 antibody stimulated mouse Ptpn22+/+ T cells assessed as increase in Lck Y394 phosphorylation at 50 uM by Western blotting. The following applies: T-cell.
The target is the same in experiment [8]. The experiment can be described thus: Inhibition of LYP in anti-CD3 and antiCD28 antibody-stimulated C57BL/6 mouse CD4+ splenocytes assessed as increase in TCR signaling-stimulated CD69 expression at 50 uM incubated for 24 hrs (reference value: 29.2%). Details: scale not given: the % may be the effect or the level left.
In experiment [9] the target is T4, Tyrosine-protein phosphatase non-receptor type 22 (Homo sapiens, UniProt Q9Y2R2).
T4 sequence (Q9Y2R2 whole entry): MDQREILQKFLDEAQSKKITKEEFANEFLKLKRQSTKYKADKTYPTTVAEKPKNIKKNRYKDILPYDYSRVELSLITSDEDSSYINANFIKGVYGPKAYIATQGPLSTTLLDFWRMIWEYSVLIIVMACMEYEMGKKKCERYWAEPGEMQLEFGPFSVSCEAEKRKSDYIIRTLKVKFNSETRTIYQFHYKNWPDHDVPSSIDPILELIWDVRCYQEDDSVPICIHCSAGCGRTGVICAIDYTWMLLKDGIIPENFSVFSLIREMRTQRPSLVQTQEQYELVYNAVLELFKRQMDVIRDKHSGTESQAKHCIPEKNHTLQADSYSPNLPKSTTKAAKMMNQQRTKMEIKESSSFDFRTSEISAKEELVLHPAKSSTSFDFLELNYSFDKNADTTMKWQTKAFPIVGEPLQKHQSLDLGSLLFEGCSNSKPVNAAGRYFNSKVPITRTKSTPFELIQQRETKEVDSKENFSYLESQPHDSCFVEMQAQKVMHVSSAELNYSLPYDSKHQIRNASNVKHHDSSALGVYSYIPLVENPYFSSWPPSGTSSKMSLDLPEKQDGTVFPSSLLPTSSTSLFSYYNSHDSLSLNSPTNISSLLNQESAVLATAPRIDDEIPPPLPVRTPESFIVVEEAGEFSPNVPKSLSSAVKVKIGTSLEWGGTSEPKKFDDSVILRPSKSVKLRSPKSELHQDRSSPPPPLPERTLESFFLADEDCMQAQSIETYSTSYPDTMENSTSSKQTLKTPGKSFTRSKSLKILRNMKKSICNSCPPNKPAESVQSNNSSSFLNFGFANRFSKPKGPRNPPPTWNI
Description: Inhibition of LYP expressed in Escherichia coli BL21 using pNPP substrate

Experiment [10] has as its target T5, Tyrosine-protein phosphatase non-receptor type 7 (Homo sapiens, UniProt P35236).
T5 sequence (P35236 whole entry): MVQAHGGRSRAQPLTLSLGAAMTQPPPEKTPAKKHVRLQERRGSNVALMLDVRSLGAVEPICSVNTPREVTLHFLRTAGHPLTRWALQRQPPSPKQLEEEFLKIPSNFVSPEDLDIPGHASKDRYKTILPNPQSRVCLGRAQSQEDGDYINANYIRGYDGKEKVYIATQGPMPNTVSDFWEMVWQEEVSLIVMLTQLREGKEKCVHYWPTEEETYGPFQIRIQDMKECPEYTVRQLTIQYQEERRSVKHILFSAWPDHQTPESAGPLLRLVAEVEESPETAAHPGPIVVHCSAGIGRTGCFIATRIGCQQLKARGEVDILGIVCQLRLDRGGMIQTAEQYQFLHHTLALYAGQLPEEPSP
Description: Inhibition of HePTP expressed in Escherichia coli BL21 using pNPP substrate

Experiment [11] concerns the target T4, Tyrosine-protein phosphatase non-receptor type 22. This is another data set of the same source.
Description: Inhibition of LYP expressed in Escherichia coli BL21 using increasing levels of ARLIED-NEpYTAREG substrate
Experiment [12] shares this target. This is another data set of the same source.

In general, IC50 refers to the concentration needed to halve the response being measured. On to `COc1ccc(-n2ncc3c(SCC(=O)N4c5ccccc5CC4C)ncnc32)cc1` (centres undefined), for which the results for the IC50 in [1] and in experiment [2] were more than 90 µM and more than 40 µM, respectively.

For the molecule `Cc1ccc2[nH]c(=O)c(C(c3nnnn3C3CCCC3)N3CCCC4(CCCCC4)C3)cc2c1` (centres undefined), the Activity was 38.9% in experiment [3], 12.1% in [4], 13.7% in experiment [6] and 36.8% in experiment [8]. In experiment [5], the inhibition result was “inactive”. Further, the inhibition result in [7] is “Active”.

As for `CCN1CCN(C(c2cc3cc(C)ccc3[nH]c2=O)c2nnnn2C2CCCC2)CC1` (centres undefined), the IC50 in experiment [9] is more than 40 µM.

In the case of `COc1ccccc1N1CCN(C(c2cc3cc(C)ccc3nc2O)c2nnnn2C2CCCC2)CC1` (centres undefined), the IC50 in [9] was more than 40 µM.

In the case of `Cc1ccc2[nH]c(=O)c(C(c3nnnn3C3CCCC3)N3CCC(C)CC3)cc2c1` (centres undefined), it took 20.6 µM to reach half-maximal inhibition in [9] (IC50).

Take `Cc1ccc2[nH]c(=O)c(C(c3nnnn3C3CCCC3)N3CCCCC3)cc2c1` (centres undefined): the concentration for half-maximal inhibition (IC50) was 30.9 µM in [9] and more than 75 µM in [10].

`Cc1ccc2[nH]c(=O)c(C(c3nnnn3C3CCCC3)N3CCN(c4ccc(F)cc4)CC3)cc2c1` (centres undefined) displayed an IC50 in experiment [9] of 30.5 µM.

On to `Cc1ccc2cc(C#N)c(SCC(=O)NC3CCCCC3)nc2c1C`, for which the IC50 in [9] is 19.8 µM; in experiment [10], 8 µM; in [1] it was 45.3 µM; in experiment [2], 21 µM.

As to `Cc1ccc2[nH]c(=O)c(C(c3nnnn3C(C)C)N3CCCC4(CCCCC4)C3)cc2c1` (centres undefined), the concentration for half-maximal inhibition (IC50) in experiment [9] is 21.2 µM.

Take `Cc1ccc2[nH]c(=O)c(C(c3nnnn3C3CCCC3)N(Cc3ccccc3)Cc3ccccc3)cc2c1` (centres undefined): the half-inhibitory concentration (IC50) in experiment [9] amounted to 13.3 µM.

On to `CCOc1ccc(NC(=O)CSc2nc3c(C)cc(C)cc3cc2C#N)cc1`, for which the IC50 was 28.1 µM in experiment [9], 16 µM in experiment [10], more than 90 µM in experiment [1] and 16 µM in [2].

In the case of `COc1ccc2cc(C#N)c(SCC(=O)Nc3cccc(C)c3C)nc2c1`, the IC50 in experiment [9] was 30.5 µM; in experiment [10] it was 15 µM; in experiment [1] it was 60.9 µM; in experiment [2], 18 µM.

In the case of `Cc1ccc2sc(NC(=O)c3sc4ccccc4c3Cl)nc2c1`, the IC50 in experiment [9] is 29.5 µM; in experiment [10], 8 µM; in experiment [1], more than 90 µM; in [2] it was 14 µM.

As for `Cc1ccc2[nH]c(=O)c(C(c3nnnn3C3CCCC3)N3CCN(C4CCCCC4)CC3)cc2c1` (centres undefined), the IC50 in experiment [9] is more than 40 µM.

In turn, `Cc1ccc2[nH]c(=O)c(C(c3nnnn3C3CCCC3)N3CCN(c4ccc(O)cc4)CC3)cc2c1` (centres undefined) came in with an IC50 in [9] of more than 40 µM.

In the case of `Cc1ccc2[nH]c(=O)c(C(c3nnnn3C3CCCC3)N3CCN(c4ccccc4)CC3)cc2c1` (centres undefined), the IC50 in [9] turned out to be 30.7 µM.

Regarding `Cc1ccc2cc(C#N)c(SCC(=O)Nc3ccc4c(c3)OCO4)nc2c1`, the IC50 is 23.3 µM in experiment [9], 12 µM in experiment [10], more than 90 µM in experiment [1] and 36 µM in [2].

`Cc1cccc2cc(C#N)c(SCC(=O)Nc3cccc(Cl)c3)nc12`: the IC50 in experiment [9] was 27.2 µM; in experiment [10], 22 µM; in experiment [1] it was more than 90 µM; in experiment [2] it was 28 µM.

For the molecule `Cc1ccc2[nH]c(=O)c(C(c3nnnn3-c3ccccc3)N3CCCC4(CCCCC4)C3)cc2c1` (centres undefined), in experiment [9], the IC50 was 11.2 µM.

`Cc1ccc2[nH]c(=O)c(C(c3nnnn3C3CCCC3)N3CCN(C)CC3)cc2c1` (centres undefined): in experiment [9], the 50% inhibitory concentration (IC50) was more than 40 µM.

For the molecule `Cc1ccc(NC(=O)CSc2nc3c(C)c(C)ccc3cc2C#N)cc1C`, the IC50 in [9] was found to be 26.6 µM; in [10], 20 µM; in [1], 53.3 µM; in [2], 27.5 µM.

Turning to `Cc1ccc2[nH]c(=O)c(C(c3nnnn3C3CCCC3)N3CCN(Cc4ccccc4)CC3)cc2c1` (centres undefined), the IC50 in experiment [9] was more than 40 µM.

`Cc1ccc2[nH]c(=O)c(C(c3nnnn3C3CCCC3)N3CCN(c4nc5ccccc5s4)CC3)cc2c1` (centres undefined): in [9], the IC50 was determined as 30 µM.

For `COc1ccc(N2CCN(C(c3cc4cc(C)ccc4[nH]c3=O)c3nnnn3C3CCCC3)CC2)cc1` (centres undefined), the IC50 in [9] is 31.5 µM.

A word on the Ki: it is the equilibrium dissociation constant of an inhibitor or competing ligand from its target. With `Cc1ccc2[nH]c(=O)c(C(c3nnnn3C3CCCC3)N3CCN(C(c4ccccc4)c4ccccc4)CC3)cc2c1` (centres undefined), the values for the inhibitory constant (Ki) in experiment [11] and in experiment [12] were 11 µM and 21.3 µM, respectively.

These data come from ChEMBL document CHEMBL2157931, “Discovery of a novel series of inhibitors of lymphoid tyrosine phosphatase with activity in human T cells” (J Med Chem, 2011).
